Where “and” joins values, the source holds several entries; their conditions need not be identical. Equal entries are not always repeated.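 96-well plates; 48 h exposure; 5 concentrations. Endpoints by linear interpolation between flanking doses. Not reached: highest tested concentration assigned. GI50 marks 50% less growth. Definition used: TGI = concentration required for complete inhibition of growth.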 Where a SMILES comes first, the peptide text is derived from it. [ ]: non-standard residue; d: D form. ξ: configuration not given here. Pentanoyl(2-O,4-OH,5-Cl) = O=C(O)C(O)CC(O)CCl; Ile(3ξ) = CCC(C)[C@H](N)C(=O)O; NMeV = CN[C@H](C(=O)O)C(C)C; NMeA = CN[C@@H](C)C(=O)O; βAla = NCCC(=O)O
What was measured:
Assay in all cases: NCI-60 cell line screen, 48 h
HCT-116 colon = test system: HCT-116 colon
SW-620 colon = test system: SW-620 colon
T-47D breast = test system: T-47D breast
RXF 393 renal = test system: RXF 393 renal
SK-OV-3 ovarian = test system: SK-OV-3 ovarian
ACHN renal = test system: ACHN renal
UACC-257 melanoma = test system: UACC-257 melanoma
NCI/ADR-RES ovarian = test system: NCI/ADR-RES ovarian
CAKI-1 renal = test system: CAKI-1 renal
NCI-H23 lung = test system: NCI-H23 lung

Compound	GI50 (HCT-116 colon)	TGI (HCT-116 colon)	GI50 (SW-620 colon)	TGI (SW-620 colon)	GI50 (T-47D breast)	TGI (T-47D breast)	GI50 (RXF 393 renal)	TGI (RXF 393 renal)	GI50 (SK-OV-3 ovarian)	TGI (SK-OV-3 ovarian)	GI50 (ACHN renal)	TGI (ACHN renal)	GI50 (UACC-257 melanoma)	TGI (UACC-257 melanoma)	GI50 (NCI/ADR-RES ovarian)	TGI (NCI/ADR-RES ovarian)	GI50 (CAKI-1 renal)	TGI (CAKI-1 renal)	GI50 (NCI-H23 lung)	TGI (NCI-H23 lung)
CCN(CC)CCN1C(=O)C2C3C(C)=CC(OC(C)=O)(CC3C)C2C1=O (configuration not stated)	> 100 µM	> 100 µM	> 100 µM	> 100 µM	> 100 µM	> 100 µM	> 100 µM	> 100 µM	> 100 µM	> 100 µM	> 100 µM	> 100 µM	> 100 µM	> 100 µM	> 100 µM	> 100 µM	> 100 µM	> 100 µM	> 100 µM	> 100 µM
C=C1C(=O)O[C@@H]2C[C@@]3(C)CCC[C@H](C)C3=C[C@H]12 (tested in a mixture with another compound)		2.93 µM		3.97 µM		3.18 µM		4.07 µM		22.7 µM		6.98 µM		3.75 µM		5.2 µM		3.57 µM		5.67 µM
CCOc1cc(/C=C/C(=O)CC(=O)/C=C/c2ccc(OC(=O)CNc3nc4ccc(OC)cc4s3)c(OCC)c2)ccc1OC(=O)CNc1nc2ccc(OC)cc2s1	3.02 µM	15.1 µM	3.78 µM	13.2 µM	10.6 µM	43.1 µM	2.9 µM	17 µM	9.89 µM	53 µM	14.2 µM	60.2 µM	5.53 µM	21.1 µM	20 µM	> 100 µM	11.4 µM	53.3 µM	7.78 µM	75.4 µM
N#Cc1nc2cc(Cl)c(Cl)cc2nc1-c1ccc(Cl)cc1	15.8 µM	29.9 µM	> 100 µM	> 100 µM	> 66.1 µM	> 100 µM	11.2 µM	> 42.6 µM	> 48.3 µM	> 80.5 µM	20 µM	47.6 µM	97.4 µM	> 100 µM	> 42.2 µM	> 83.4 µM	34 µM	> 66.8 µM	> 60.5 µM	> 100 µM
CN(C)CCN1C(=O)c2cccc3cc(N)cc(c23)C1=O	3.21 µM	> 60.2 µM and 9.87 µM	2.14 µM	24.3 µM and 15.9 µM	3.66 µM	> 57.1 µM and 32.4 µM		18.1 µM and 10.6 µM		38.4 µM and 17.4 µM	1.33 µM	4.47 µM and 3.63 µM	2.55 µM	9.51 µM and 12.8 µM		> 67.2 µM and 12.2 µM	1.77 µM and 1.11 µM	11.1 µM and 7.59 µM	3.43 µM	22.7 µM and 14.1 µM
CC(=O)Nc1ccc(CC[C@H]2CCC/C=C/[C@@H]3C[C@H](O)C[C@H]3[C@H](O)/C=C/C(=O)O2)cc1	0.184 µM	0.389 µM	0.185 µM	0.597 µM	0.29 µM		0.0359 µM	0.15 µM	0.0667 µM	> 100 µM	0.375 µM	> 47.2 µM	0.0596 µM	> 100 µM	0.819 µM	> 100 µM	0.361 µM	> 21.2 µM	0.188 µM	0.759 µM
O=C(c1ccccc1)c1nc2ccc(Cl)cc2cc1C(Br)Br		0.34 µM		0.905 µM		1.12 µM		0.361 µM		2.73 µM		0.662 µM		1.54 µM		0.505 µM		1.75 µM		1.11 µM
CC(C)CC(NC(=O)C(O)C(N)Cc1ccccc1)C(=O)O (configuration not stated)		> 100 µM		> 100 µM		> 100 µM		> 100 µM		> 100 µM		> 100 µM		> 100 µM		> 100 µM		> 100 µM		> 100 µM
CCC(C)[C@@H]1NC(=O)[C@@H]2CCCN2C(=O)C(CC(O)CCl)OC(=O)CCNC(=O)[C@H](C)N(C)C(=O)[C@H](C(C)C)N(C)C1=O (some centres not stated) (cyclo([Ile(3ξ)][NMeV][NMeA][βAla][Pentanoyl(2-O,4-OH,5-Cl)]P))		> 100 µM		> 100 µM		> 100 µM		> 100 µM		> 100 µM		> 100 µM		> 86 µM		> 100 µM		> 100 µM		> 100 µM
Cc1ccc(NC(=O)c2ccoc2)cc1-c1ccc(C(=O)NCC2CC2)cc1	> 25 µM	> 25 µM	> 25 µM	> 25 µM	7.16 µM	> 25 µM	> 25 µM	> 25 µM	> 25 µM	> 25 µM	> 25 µM	> 25 µM	> 17.7 µM	> 25 µM	> 18.8 µM	> 25 µM	> 25 µM	> 25 µM	> 25 µM	> 25 µM
CC(C)Cn1cnc2c(N)nc3ccccc3c21	19.8 µM	> 73.1 µM	41.8 µM	> 100 µM	41.6 µM	> 100 µM	28.9 µM	97.2 µM	> 100 µM	> 100 µM	27.9 µM	> 100 µM	33.7 µM	> 91.5 µM	49 µM	> 100 µM	34.8 µM	> 100 µM	37.1 µM	> 100 µM
O=C(O)c1c2c(c(O)c3c1CN(C1CCCCC1)CO3)OCN(C1CCCCC1)C2		> 100 µM		52.5 µM		> 100 µM		> 100 µM		> 100 µM		> 100 µM		> 100 µM		> 100 µM		> 100 µM		> 100 µM
COc1ccc(-c2cc(=O)c3c(C)ccnc3[nH]2)cc1	6.43 µM	39.4 µM		> 100 µM		> 100 µM		41.6 µM		> 100 µM		> 100 µM		> 100 µM		> 100 µM		> 100 µM		65.2 µM
CN1CCC2(CC1)C(=O)Nc1cc(NC(=O)c3ccc4c(c3)C[C@@H]3C(C)(C)[C@H](O)[C@H](F)C[C@@]3(C)O4)ccc12	1.35 µM	17.2 µM	0.588 µM	11.5 µM	5.67 µM	28.8 µM	0.0497 µM	10.6 µM	1.71 µM	27.3 µM	8.59 µM	> 100 µM	3.21 µM	21.2 µM	> 100 µM	> 100 µM	1.34 µM	18.7 µM	10.6 µM	42.5 µM
Cc1ccc(/C=C/C(=O)c2ccc(F)cc2)s1	1.86 µM	3.37 µM	1.96 µM	3.99 µM	4.71 µM	23.5 µM	1.82 µM	4.04 µM	15.4 µM	37.9 µM	2.26 µM	4.52 µM	3.33 µM	14.1 µM	3.68 µM	17.6 µM	1.78 µM	3.72 µM	3.67 µM	16.5 µM
O=C(Nc1ccccc1/C=C/c1n[nH]c2ccccc12)c1ccccc1	2.28 µM	10.5 µM	1.71 µM	11.5 µM	3.77 µM	15.8 µM	4.58 µM	17.3 µM	10.9 µM	22.8 µM	7.71 µM	20.1 µM	2.36 µM	16.5 µM	4.69 µM	20 µM	2.98 µM	16.9 µM	2.2 µM	17.6 µM
CN1CCN(c2cc(F)c(NC3=C(Cl)C(=O)c4ncccc4C3=O)c(F)c2)CC1	0.646 µM	2.26 µM	1.46 µM	3.17 µM	1.82 µM	4.61 µM	1.64 µM	3.1 µM	14.7 µM	28.2 µM	1.53 µM	2.9 µM	1.43 µM	2.78 µM	2.4 µM	6.53 µM	1.27 µM	2.52 µM	1.4 µM	3.01 µM
COc1cc(OC)c(OC)cc1/C=C/c1ccccn1		> 10 µM		> 10 µM		> 10 µM		> 10 µM		> 10 µM		> 10 µM		> 10 µM		> 10 µM		> 10 µM		> 10 µM
CC[C@@H]1C(=O)N(C)c2cnc(Nc3ccc(C(=O)NC4CCC(N5CCN(CC6CC6)CC5)CC4)cc3OC)nc2N1C(C)C (some centres not stated)	0.0136 µM and 0.022 µM	> 3.83 µM and 1.68 µM	0.00561 µM and 0.0102 µM	> 10 µM and 11.1 µM	0.155 µM and 0.113 µM	> 10 µM and 21.9 µM	0.0349 µM and 0.0393 µM	> 9.08 µM and 4.9 µM	0.046 µM and 0.0354 µM	1.37 µM and 0.904 µM	0.305 µM and 0.222 µM	> 10 µM and 13.6 µM	0.22 µM and 0.046 µM	> 5.86 µM and 1.75 µM	0.249 µM and 0.245 µM	> 10 µM and 28.9 µM	0.109 µM and 0.39 µM	> 10 µM and 10.7 µM	0.0158 µM and 0.028 µM	> 10 µM and 2.99 µM
C[C@]12CC[C@H]3[C@@H](CCC4=CC(=O)CC[C@@]43C)[C@]1(O)CC[C@]2(O)C(=O)CO		> 100 µM		> 100 µM		> 100 µM		> 100 µM		> 100 µM		> 100 µM		> 100 µM		> 100 µM		> 100 µM		> 100 µM
COc1cc(-c2csc(NC(=O)Nc3ccc(Cl)cc3)n2)cc(OC)c1OC	2.83 µM	8.12 µM	3.96 µM	> 100 µM	1.91 µM	6.29 µM	3.91 µM	13.9 µM	3 µM	8.91 µM	2.53 µM	7.35 µM	2.48 µM	6.03 µM	2.7 µM	8.65 µM	2.91 µM	11.1 µM	2.54 µM	10.9 µM
